Laboratory results from PMC9329436, “Optimization of the 4-anilinoquin(az)oline scaffold as epidermal growth factor receptor (EGFR) inhibitors for chordoma utilizing a toxicology profiling assay platform” (Scientific Reports, 2022).
Where two headings read alike, the source gives them in different places.

Key:
Type in all cases: biochemical
[1] = target: T1, 320 wild-type protein kinases (Homo sapiens, UniProt P42680); conditions: kinase TEC, singlicate
T1 sequence (P42680 1-631): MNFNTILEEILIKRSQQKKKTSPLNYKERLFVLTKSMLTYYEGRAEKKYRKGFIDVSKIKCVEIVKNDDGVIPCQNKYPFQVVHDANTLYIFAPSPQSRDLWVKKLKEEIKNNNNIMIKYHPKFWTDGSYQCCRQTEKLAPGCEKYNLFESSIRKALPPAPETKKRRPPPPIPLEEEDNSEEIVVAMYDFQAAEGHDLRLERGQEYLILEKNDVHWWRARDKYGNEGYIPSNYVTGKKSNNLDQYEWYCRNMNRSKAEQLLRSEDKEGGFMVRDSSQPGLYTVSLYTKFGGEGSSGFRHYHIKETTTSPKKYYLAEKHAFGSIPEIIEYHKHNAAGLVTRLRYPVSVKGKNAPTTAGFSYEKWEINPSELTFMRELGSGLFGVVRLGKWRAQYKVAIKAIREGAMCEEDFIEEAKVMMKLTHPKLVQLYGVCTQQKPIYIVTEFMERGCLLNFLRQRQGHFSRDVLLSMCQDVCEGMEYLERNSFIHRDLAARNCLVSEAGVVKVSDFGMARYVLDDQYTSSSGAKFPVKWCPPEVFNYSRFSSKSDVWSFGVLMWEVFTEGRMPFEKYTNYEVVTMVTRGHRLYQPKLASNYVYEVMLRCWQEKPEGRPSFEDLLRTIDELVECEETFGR
Source text: (§1) Table S4. Profiling of two compounds at two concentrations against 320 wild-type protein kinases; singlicate measurement; Residual activities (% of control).

[2] = target: 320 wild-type protein kinases (Homo sapiens, UniProt P42685); conditions: FRK, singlicate
Source text: as §1

[3] = target: 320 wild-type protein kinases (Homo sapiens, UniProt P50613); conditions: singlicate
Source text: as §1

[4] = target: T2, 320 wild-type protein kinases (Homo sapiens, UniProt P52564, S207D/T211D); conditions: MKK6 S207D/T211D**, singlicate
T2 sequence (P52564 1-334 S207D/T211D): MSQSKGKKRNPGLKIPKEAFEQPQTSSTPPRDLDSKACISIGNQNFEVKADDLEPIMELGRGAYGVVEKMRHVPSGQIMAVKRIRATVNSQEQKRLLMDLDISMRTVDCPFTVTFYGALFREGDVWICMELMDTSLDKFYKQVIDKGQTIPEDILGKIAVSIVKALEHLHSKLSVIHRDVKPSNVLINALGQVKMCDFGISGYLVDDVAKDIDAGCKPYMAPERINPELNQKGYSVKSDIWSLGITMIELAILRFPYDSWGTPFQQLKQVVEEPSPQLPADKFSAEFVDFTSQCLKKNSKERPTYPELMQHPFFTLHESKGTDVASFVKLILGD
Source text: as §1

[5] = target: 320 wild-type protein kinases (Homo sapiens, UniProt Q16644); conditions: singlicate
Source text: as §1

[6] = target: T3, 320 wild-type protein kinases (Homo sapiens, UniProt Q8NE63); conditions: singlicate
T3 sequence (Q8NE63 1-616): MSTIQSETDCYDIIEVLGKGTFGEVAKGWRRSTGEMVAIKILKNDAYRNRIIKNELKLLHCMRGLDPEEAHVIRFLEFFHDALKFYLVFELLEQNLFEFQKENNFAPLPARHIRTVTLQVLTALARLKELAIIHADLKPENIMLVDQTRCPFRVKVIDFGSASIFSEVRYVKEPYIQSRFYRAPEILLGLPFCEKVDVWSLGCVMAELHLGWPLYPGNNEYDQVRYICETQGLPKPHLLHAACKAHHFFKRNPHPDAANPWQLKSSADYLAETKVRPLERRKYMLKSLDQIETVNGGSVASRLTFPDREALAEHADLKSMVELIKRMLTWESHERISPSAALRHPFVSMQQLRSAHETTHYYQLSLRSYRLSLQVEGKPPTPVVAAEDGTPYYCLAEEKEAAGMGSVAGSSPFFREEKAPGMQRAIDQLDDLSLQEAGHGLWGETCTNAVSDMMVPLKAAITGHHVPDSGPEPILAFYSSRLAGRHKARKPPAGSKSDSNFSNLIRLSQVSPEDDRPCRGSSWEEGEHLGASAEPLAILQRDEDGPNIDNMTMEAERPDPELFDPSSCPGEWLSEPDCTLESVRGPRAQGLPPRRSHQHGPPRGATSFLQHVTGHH
Source text: as §1

[7] = target: T4, 320 wild-type protein kinases (Homo sapiens, UniProt Q9HBY8); conditions: kinase SGK2, singlicate
T4 sequence (Q9HBY8 1-367): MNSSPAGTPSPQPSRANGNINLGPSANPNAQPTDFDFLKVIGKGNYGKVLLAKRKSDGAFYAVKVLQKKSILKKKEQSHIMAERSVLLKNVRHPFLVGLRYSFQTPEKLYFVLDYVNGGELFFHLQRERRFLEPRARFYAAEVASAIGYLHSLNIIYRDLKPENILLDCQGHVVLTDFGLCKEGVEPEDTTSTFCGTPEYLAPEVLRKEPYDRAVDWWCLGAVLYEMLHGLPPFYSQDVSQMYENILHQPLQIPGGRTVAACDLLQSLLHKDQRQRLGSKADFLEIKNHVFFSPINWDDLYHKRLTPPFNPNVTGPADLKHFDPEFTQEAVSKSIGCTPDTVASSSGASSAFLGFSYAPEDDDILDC
Source text: as §1

[8] = target: 320 wild-type protein kinases (Homo sapiens, UniProt Q9HC98); conditions: singlicate
Source text: as §1

[9] = system: 320 wild-type protein kinases; conditions: singlicate
Source text: as §1

Chain of 320 wild-type protein kinases (Homo sapiens, UniProt P42685) (P42685 whole entry): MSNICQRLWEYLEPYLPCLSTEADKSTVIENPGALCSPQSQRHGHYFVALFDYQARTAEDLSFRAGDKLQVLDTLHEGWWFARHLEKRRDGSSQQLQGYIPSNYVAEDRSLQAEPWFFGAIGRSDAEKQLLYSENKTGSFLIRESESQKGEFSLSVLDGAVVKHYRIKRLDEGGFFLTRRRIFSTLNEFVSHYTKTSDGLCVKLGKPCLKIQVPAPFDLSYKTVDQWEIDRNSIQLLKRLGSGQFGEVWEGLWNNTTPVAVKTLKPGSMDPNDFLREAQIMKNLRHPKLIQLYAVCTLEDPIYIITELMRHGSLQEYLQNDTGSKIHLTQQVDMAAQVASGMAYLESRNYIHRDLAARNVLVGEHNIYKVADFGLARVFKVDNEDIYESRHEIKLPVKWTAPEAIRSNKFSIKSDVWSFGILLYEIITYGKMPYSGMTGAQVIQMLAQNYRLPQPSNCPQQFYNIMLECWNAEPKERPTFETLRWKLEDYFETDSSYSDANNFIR
Chain of 320 wild-type protein kinases (Homo sapiens, UniProt Q9HC98) (Q9HC98 whole entry): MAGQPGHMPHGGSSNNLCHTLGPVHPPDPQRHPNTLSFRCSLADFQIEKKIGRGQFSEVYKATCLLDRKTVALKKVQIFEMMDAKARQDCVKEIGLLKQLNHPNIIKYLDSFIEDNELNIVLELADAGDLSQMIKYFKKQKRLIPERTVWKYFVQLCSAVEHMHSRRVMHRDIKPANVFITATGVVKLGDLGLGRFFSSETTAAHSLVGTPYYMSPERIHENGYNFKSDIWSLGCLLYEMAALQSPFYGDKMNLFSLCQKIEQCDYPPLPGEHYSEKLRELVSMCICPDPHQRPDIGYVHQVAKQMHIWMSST
Chain of 320 wild-type protein kinases (Homo sapiens, UniProt P50613) (P50613 whole entry): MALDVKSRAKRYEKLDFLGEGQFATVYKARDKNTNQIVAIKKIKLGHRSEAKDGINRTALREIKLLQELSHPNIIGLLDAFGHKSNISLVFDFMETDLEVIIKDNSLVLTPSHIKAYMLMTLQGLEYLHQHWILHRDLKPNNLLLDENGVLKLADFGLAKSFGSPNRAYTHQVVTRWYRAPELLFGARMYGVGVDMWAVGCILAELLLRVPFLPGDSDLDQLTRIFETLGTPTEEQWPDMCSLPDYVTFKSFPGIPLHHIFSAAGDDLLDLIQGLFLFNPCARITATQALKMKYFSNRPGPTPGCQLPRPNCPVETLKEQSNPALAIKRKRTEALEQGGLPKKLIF
Chain of 320 wild-type protein kinases (Homo sapiens, UniProt Q16644) (Q16644 whole entry): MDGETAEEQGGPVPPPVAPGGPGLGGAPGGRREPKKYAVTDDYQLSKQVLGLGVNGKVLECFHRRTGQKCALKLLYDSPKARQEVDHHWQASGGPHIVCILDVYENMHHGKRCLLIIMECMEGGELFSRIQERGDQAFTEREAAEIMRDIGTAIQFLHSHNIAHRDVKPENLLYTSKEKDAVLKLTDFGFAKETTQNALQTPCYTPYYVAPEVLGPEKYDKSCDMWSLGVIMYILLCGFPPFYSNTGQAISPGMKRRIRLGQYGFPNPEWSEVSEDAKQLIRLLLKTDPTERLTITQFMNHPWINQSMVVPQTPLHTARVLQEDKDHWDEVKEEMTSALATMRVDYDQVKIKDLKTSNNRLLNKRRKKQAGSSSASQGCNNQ

C#Cc1cc(Nc2ncnc3cc(I)ccc23)ccc1Cl [Compound 41]
Residual activity, TEC ([1]; assay conc. 1.0E-06 M): 90 % of control
Residual activity, TEC ([1]; assay conc. 1.0E-07 M): 96 % of control
Residual activity ([2]; 1.0E-06 M): 106 % of control
Residual activity ([2]; 1.0E-07 M): 93 % of control
Residual activity ([3]; CDK7/CycH/MAT1, 1.0E-06 M): 81 % of control
Residual activity ([3]; CDK7/CycH/MAT1, 1.0E-07 M): 93 % of control
Residual activity ([4]; 1.0E-06 M): 98 % of control
Residual activity ([4]; 1.0E-07 M): 90 % of control
Residual activity ([5]; MAPKAPK3, 1.0E-06 M): 86 % of control
Residual activity ([5]; MAPKAPK3, 1.0E-07 M): 99 % of control
Residual activity ([6]; HIPK4, 1.0E-06 M): 97 % of control
Residual activity ([6]; HIPK4, 1.0E-07 M): 104 % of control
Residual activity, SGK2 ([7]; assay conc. 1.0E-06 M): 86 % of control
Residual activity, SGK2 ([7]; assay conc. 1.0E-07 M): 101 % of control
Residual activity ([8]; NEK6, 1.0E-06 M): 92 % of control
Residual activity ([8]; NEK6, 1.0E-07 M): 84 % of control
Residual activity ([9]; PKC-beta2, 1.0E-06 M): 95 % of control
Residual activity ([9]; PKC-beta2, 1.0E-07 M): 98 % of control

C#Cc1cc(Nc2ncnc3cc(OC)c(OC)cc23)ccc1Cl [Compound 45]
Residual activity, TEC ([1]; assay conc. 1.0E-06 M): 92 % of control
Residual activity, TEC ([1]; assay conc. 1.0E-07 M): 108 % of control
Residual activity ([2]; 1.0E-06 M): 74 % of control
Residual activity ([2]; 1.0E-07 M): 96 % of control
Residual activity ([3]; CDK7/CycH/MAT1, 1.0E-06 M): 79 % of control
Residual activity ([3]; CDK7/CycH/MAT1, 1.0E-07 M): 74 % of control
Residual activity ([4]; 1.0E-06 M): 90 % of control
Residual activity ([4]; 1.0E-07 M): 95 % of control
Residual activity ([5]; MAPKAPK3, 1.0E-06 M): 87 % of control
Residual activity ([6]; HIPK4, 1.0E-06 M): 57 % of control
Residual activity ([6]; HIPK4, 1.0E-07 M): 98 % of control
Residual activity, SGK2 ([7]; assay conc. 1.0E-06 M): 98 % of control
Residual activity, SGK2 ([7]; assay conc. 1.0E-07 M): 94 % of control
Residual activity ([8]; NEK6, 1.0E-06 M): 92 % of control
Residual activity ([8]; NEK6, 1.0E-07 M): 90 % of control
Residual activity ([9]; PKC-beta2, 1.0E-06 M): 95 % of control
Residual activity ([9]; PKC-beta2, 1.0E-07 M): 97 % of control
